Reference: patent publication US9492437B2, “Otamixaban for treatment of elderly and renal impaired non-ST elevation myocardial infarction patients” (SANOFI, priority 2009, dated 2016)
Like-named read-outs stand apart in the source and are kept apart here.

What was measured:
[1] = tested on: thrombosis; conditions: porcine; cited from earlier work
[2] = tested on: thrombosis; conditions: canine; cited from earlier work
[3] = tested on: patients with Unstable angina/Non ST segment Elevation Myocardial infarction; conditions: in vivo
Experimental: The following results are based on a randomized, double-blind triple-dummy trial to compare otamixaban to Unfractionated Heparin+eptifibatide, in patients with Unstable angina/Non ST segment Elevation Myocardial infarction scheduled to undergo an early invasive strategy.
Otamixaban arm: (Bol) 0.080 mg/Kg (I) 0.035 mg/Kg/h or 0.070 mg/Kg/h or 0.105 mg/Kg/h or 0.175 mg/Kg/h
UFH: 60 IU/Kg as IV bolus ([…]) followed by an IV infusion of 12 U/Kg/h (max 1000 IU/h) to maintain a PTT at 1.5 to 2.0 times control and at the time of the PCI additional boluses needed if the ACT is not in the range of 200-250 seconds. NB: In order for the study to be blinded, all aPTTs and ACTs performed in order to adjust Drug B (UFH/placebo) dosing will be performed using an encrypted Hemochron Signature Elite machine (or as a back-up, a local device with a third-party unblinded healthcare professional).
Eptifibatide: a single bolus of 180 mcg/kg followed by an infusion of 2 mcg/kg/min. In patients with CrCl<50 mL/min the infusion rate will be decreased to 1 mcg/kg/min.
Safety: • Non-CABG TIMI significant (Major+Minor) bleeding adjudicated by a blinded Clinical Events Adjudication Committee (CEAC) at Day 7. • Non-CABG TIMI Major bleeding adjudicated by a blinded Clinical Events Adjudication Committee (CEAC) at Day 7. • CABG-related bleeding adjudicated by a blinded Clinical Events Adjudication Committee (CEAC) at Day 7. • TIMI Major Bleeding (Non CABG+CABG) adjudicated by a blinded Clinical Events Adjudication Committee (CEAC) at Day 7. • Adjudicated TIMI Minor bleedings at Day 7 • Adjudicated Thrombotic and non-thrombotic procedural complications during the index PCI (including abrupt or threatened closure, new intracoronary thrombus, side branch closure, distal embolization, noreflow, thrombus in catheter or adherent to guidewire, coronary dissection with decreased flow, difficulty in reaching or crossing lesion, unplanned stent use, suboptimal results, coronary perforation, tamponade). All the above events will be adjudicated by a blinded Independent Adjudication Committee.

[4] = molecular target: factor Xa assembled in the prothrombinase complex (Factor Xa, Factor Va, calcium and phospholipid) (Homo sapiens, UniProt P00742); conditions: cited from earlier work
Chain of factor Xa assembled in the prothrombinase complex (Factor Xa, Factor Va, calcium and phospholipid) (P00742 235-488 limits assumed): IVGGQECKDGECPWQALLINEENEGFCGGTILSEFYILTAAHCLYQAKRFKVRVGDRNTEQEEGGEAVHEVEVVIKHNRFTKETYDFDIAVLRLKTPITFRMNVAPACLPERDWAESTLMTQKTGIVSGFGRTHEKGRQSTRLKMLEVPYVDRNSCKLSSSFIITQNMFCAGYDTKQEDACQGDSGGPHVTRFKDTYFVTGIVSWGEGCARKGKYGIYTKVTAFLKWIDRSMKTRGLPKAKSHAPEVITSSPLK
Chain of factor Xa assembled in the prothrombinase complex (Factor Xa, Factor Va, calcium and phospholipid) (P00742 41-179 limits assumed): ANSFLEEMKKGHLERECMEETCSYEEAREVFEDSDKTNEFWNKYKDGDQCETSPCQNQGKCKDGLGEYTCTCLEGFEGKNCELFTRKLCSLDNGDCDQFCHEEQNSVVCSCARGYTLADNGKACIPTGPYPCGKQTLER
Chain of factor Xa assembled in the prothrombinase complex (Factor Xa, Factor Va, calcium and phospholipid) (P12259 29-737 partner limits assumed): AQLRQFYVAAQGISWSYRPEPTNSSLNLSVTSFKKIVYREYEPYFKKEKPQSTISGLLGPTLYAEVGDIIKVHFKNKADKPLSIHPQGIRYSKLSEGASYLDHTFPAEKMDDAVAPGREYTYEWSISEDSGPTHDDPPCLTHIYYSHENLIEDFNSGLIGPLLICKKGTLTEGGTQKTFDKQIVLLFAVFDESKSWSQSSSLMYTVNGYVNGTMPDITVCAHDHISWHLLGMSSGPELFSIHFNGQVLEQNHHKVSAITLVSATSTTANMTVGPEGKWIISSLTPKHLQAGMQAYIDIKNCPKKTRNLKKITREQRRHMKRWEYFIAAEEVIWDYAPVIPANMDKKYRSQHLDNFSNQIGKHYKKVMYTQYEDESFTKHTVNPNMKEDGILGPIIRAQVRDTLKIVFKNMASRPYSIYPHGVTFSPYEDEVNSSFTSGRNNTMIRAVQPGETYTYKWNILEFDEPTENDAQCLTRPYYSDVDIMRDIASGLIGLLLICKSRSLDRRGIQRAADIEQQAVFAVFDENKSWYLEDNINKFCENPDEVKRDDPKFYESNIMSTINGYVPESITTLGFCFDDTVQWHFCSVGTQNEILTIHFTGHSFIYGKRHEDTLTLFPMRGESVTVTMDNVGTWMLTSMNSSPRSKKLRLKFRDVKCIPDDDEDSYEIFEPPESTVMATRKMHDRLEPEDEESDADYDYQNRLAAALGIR
Chain of factor Xa assembled in the prothrombinase complex (Factor Xa, Factor Va, calcium and phospholipid) (P12259 1574-2224 partner limits assumed): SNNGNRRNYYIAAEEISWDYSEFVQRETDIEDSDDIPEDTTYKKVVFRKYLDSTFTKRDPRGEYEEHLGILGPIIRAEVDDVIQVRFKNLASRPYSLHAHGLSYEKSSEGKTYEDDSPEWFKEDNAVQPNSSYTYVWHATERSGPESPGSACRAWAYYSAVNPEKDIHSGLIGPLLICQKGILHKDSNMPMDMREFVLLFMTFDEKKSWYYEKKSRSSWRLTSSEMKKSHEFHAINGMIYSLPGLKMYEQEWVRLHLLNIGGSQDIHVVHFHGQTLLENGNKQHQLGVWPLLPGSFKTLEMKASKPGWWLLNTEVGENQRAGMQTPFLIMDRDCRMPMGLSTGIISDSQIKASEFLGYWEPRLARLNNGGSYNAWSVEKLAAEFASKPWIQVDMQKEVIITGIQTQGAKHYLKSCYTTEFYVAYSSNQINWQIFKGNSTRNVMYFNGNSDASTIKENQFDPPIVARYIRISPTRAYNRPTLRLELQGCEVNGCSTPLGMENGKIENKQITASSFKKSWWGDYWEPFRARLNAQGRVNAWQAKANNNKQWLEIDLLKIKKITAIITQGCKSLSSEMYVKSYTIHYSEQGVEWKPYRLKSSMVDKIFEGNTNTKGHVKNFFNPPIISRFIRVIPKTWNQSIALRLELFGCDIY

[5] = subgroup pharmacokinetic analysis (concentration of otamixaban); format: in vivo, human; conditions: dose 4 (0.140 mg/Kg/h)
[6] = tested on: acute coronary syndrome; conditions: cited from earlier work
[7] = molecular target: free factor Xa (Homo sapiens, UniProt P00742); conditions: cited from earlier work
Chain of free factor Xa (P00742 235-488 limits assumed): as the sequence (P00742 235-488 limits assumed) above
Chain of free factor Xa (P00742 41-179 limits assumed): as the sequence (P00742 41-179 limits assumed) above

[8] = tested on: prothrombin fragments 1+2; conditions: highest dose regimen; cited from earlier work
[9] = tested on: thrombosis; conditions: rodent; cited from earlier work
[10] = molecular target: T1, factor Xa (Homo sapiens, UniProt P00742); conditions: patients with stable coronary artery disease taking usual comedication, some with mild renal impairment; cited from earlier work
T1 construct: host or cells: patients (endogenous enzyme)
T1 sequence (P00742 235-488 limits assumed): as the sequence (P00742 235-488 limits assumed) above
T1 sequence (P00742 41-179 partner limits assumed): as the sequence (P00742 41-179 limits assumed) above

COC(=O)C(Cc1cccc(C(=N)N)c1)[C@@H](C)NC(=O)c1ccc(-c2cc[n+]([O-])cc2)cc1 (mixture of isomers) [Otamixaban, (2R,3R)-2-(3-Carbamimidoyl-benzyl)-3-[4-(1-oxy-pyridin-4-yl)benzoylamino]-butyric acid methyl ester]
efficacy in models of thrombosis [1]: highly efficacious | efficacy in models of thrombosis [2]: highly efficacious | bleeding rate among subgroups (age, baseline creatinine clearance, body weight) ([3]; human): did not show any increase of the bleeding rate | rates of TIMI major as compared to UFH+eptifibatide ([3]; 0.105 mg/kg): numerically higher | rates of TIMI minimal as compared to UFH+eptifibatide ([3]; 0.105 mg/kg): numerically higher | rates of TIMI minor (for patients without TIMI major) as compared to UFH+eptifibatide ([3]; 0.105 mg/kg): lower | TIMI significant bleeding ([3]; 0.175 mg/kg): excessive | inhibition of factor Xa assembled in the prothrombinase complex [4]: inhibited | concentration of otamixaban in patients with renal impairment and in elderly patients [5]: higher concentration | efficacy, safety and tolerability in humans [6]: efficacious, safe and well tolerated | inhibition of free factor Xa [7]: inhibited | reduction of prothrombin fragments 1+2 versus unfractionated heparin [8]: reduced prothrombin fragments 1+2 significantly more than unfractionated heparin | efficacy in models of thrombosis [9]: highly efficacious | factor Xa inhibition in patients [10]: dose-dependent, rapid direct factor Xa inhibition
